Legend:
MDA-MB-231 = test: MTT cytotoxic activity against breast MDA-MB-231 cancer cell line; assay type: cell-based; conditions: Homo sapiens, MDA-MB-231; MTT assay, 24 h treatment
Excerpt: All the synthesised compounds were screened for their cytotoxic activity against breast MDA-MB-231 cancer cell line and compounds 6 and 12 against breast MCF-10A cell line taking CA-4 as a positive control for the analysis. The in vitro cytotoxicity results of the prepared compounds were systematised in Table 1. […] Structurally, the prepared molecules contain three structural variations; including rotatable hydrazide derivatives, the core exchange with imidazolone ring, and the ring expansion with triazinone motif. […] It is noticed that directly attached benzene ring to triazinone scaffold (compound 6) or bioisosteric group (thiazolyl ester) as in compound 12, may contribute to the astonishing cytotoxicity against breast MDA-MB-231 cancer cells.
To measure the cytotoxic activity of the synthesised derivatives 2a–13e in breast cancer (MDA-MB-231) cell line. MTT assay method was applied to assess cell viability assay. All experimental steps were conducted as reported earlier.
Part I: Biological Studies
4.3. Biological evaluation
4.3.1. Cytotoxic activity evaluation
The cytotoxic actvity of the synthesized derivatives 2a-13e was measured in MDA-MB-231 breast cancer cell line and derivatives 6 and 12 in MCF-10A […].
Cell viability assay was assessed using MTT assay method. Cells at density of 1 x 104 were seeded in a 96-well plate at 37 °C for 24 h under 5% CO2. After incubation, the cells were treated with different concentrations of the test schiff bases 2a-13e and incubated for 24 h, then 20 µl of MTT solution at 5 mg/mL was applied and incubated for 4 h at 37 °C.
Dimethyl sulphoxide (DMSO) in volume of 100 µl was added to each well to dissolve the purple formazan that had formed. The color intensity of the formazan product, which represents the growth condition of the cells, is quantified by using an ELISA plate reader (EXL 800, USA) at 570 nm absorbance. The experimental conditions were carried out with at least three replicates, and the experiments were repeated at least three times. […]

melting point	SMILES	IC50 (MDA-MB-231)
212 to 214 °C	COc1cc(C=C2N=C(c3cc(OC)c(OC)c(OC)c3)N(c3nc(-c4cccc([N+](=O)[O-])c4)cs3)NC2=O)cc(OC)c1OC [Compound 13d, 2-(4-(3-Nitrophenyl)thiazol-2-yl)-5-(3,4,5-trimethoxybenzylidene)-3-(3,4,5-trimethoxyphenyl)-1,2-dihydro-1,2,4-triazin-6(5H)-one]	3.16 ± 0.17 µM
236 to 238 °C	COc1cc(C=C(NC(=O)c2cc(OC)c(OC)c(OC)c2)C(=O)NNC(=O)c2ccc(Br)cc2)cc(OC)c1OC [Compound 2b, N-(3-(2-(4-bromobenzoyl)hydrazinyl)-3-oxo-1-(3,4,5-trimethoxyphenyl)prop-1-en-2-yl)-3,4,5-trimethoxybenzamide]	39.7 ± 1.8 µM
212 to 214 °C	COc1cc(C=C(NC(=O)c2cc(OC)c(OC)c(OC)c2)C(=O)NNC(=S)Nc2ccccc2)cc(OC)c1OC [Compound 3, 3,4,5-trimethoxy-N-(3-oxo-3-(2-(phenylcarbamothioyl)hydrazinyl)-1-(3,4,5-trimethoxyphenyl)prop-1-en-2-yl)benzamide]	14.9 ± 0.8 µM
239 to 241 °C	COc1cc(C=C2N=C(c3cc(OC)c(OC)c(OC)c3)N(C(N)=S)NC2=O)cc(OC)c1OC (hydrate or solvate) [Compound 9, 6-oxo-5-(3,4,5-trimethoxybenzylidene)-3-(3,4,5-trimethoxyphenyl)-5,6-dihydro-1,2,4-triazine-2(1H)-carbothioamide]	
212 to 214 °C	COc1cc(C=C2N=C(c3cc(OC)c(OC)c(OC)c3)N(c3nc(-c4ccc(Br)cc4)cs3)NC2=O)cc(OC)c1OC [Compound 13c, 2-(4-(4-Bromophenyl)thiazol-2-yl)-5-(3,4,5-trimethoxybenzylidene)-3-(3,4,5-trimethoxyphenyl)-1,2-dihydro-1,2,4-triazin-6(5H)-one]	10.1 ± 0.54 µM
	COc1cc(C=C(NC(=O)c2cc(OC)c(OC)c(OC)c2)C(=O)NNC(N)=S)cc(OC)c1OC [Compound 8, N-(3-(2-carbamothioylhydrazinyl)-3-oxo-1-(3,4,5-trimethoxyphenyl)prop-1-en-2-yl)-3,4,5-trimethoxybenzamide]	31.5 ± 1.82 µM
210 to 212 °C	CCOC(=O)Cc1csc(NNC(=O)C(=Cc2cc(OC)c(OC)c(OC)c2)NC(=O)c2cc(OC)c(OC)c(OC)c2)n1 [Compound 10, ethyl 2-(2-(2-(2-(3,4,5-trimethoxybenzamido)-3-(3,4,5-trimethoxyphenyl)acryloyl)hydrazinyl)thiazol-4-yl)acetate]	4.8 ± 0.21 µM
205 to 207 °C	COc1cc(C=C2N=C(c3cc(OC)c(OC)c(OC)c3)N(N)C2=O)cc(OC)c1OC [Compound 5, 1-amino-4-(3,4,5-trimethoxybenzylidene)-2-(3,4,5-trimethoxyphenyl)-1H-imidazol-5(4H)-one]	57.1 ± 3.23 µM
212 to 214 °C	COc1cc(C(=O)N/C=C(\C(=O)NNc2nc(-c3ccccc3)cs2)c2cc(OC)c(OC)c(OC)c2)cc(OC)c1OC [Compound 11a, 3,4,5-Trimethoxy-N-(3-oxo-3-(2-(4-arylthiazol-2-yl)hydrazinyl)-1-(3,4,5-trimethoxyphenyl)prop-1-en-2-yl)benzamide]	6.21 ± 0.47 µM
212 to 214 °C	COc1cc(C=C2N=C(c3cc(OC)c(OC)c(OC)c3)N(c3nc(-c4ccc(Cl)cc4)cs3)NC2=O)cc(OC)c1OC [Compound 13b, 2-(4-(4-Chlorophenyl)thiazol-2-yl)-5-(3,4,5-trimethoxybenzylidene)-3-(3,4,5-trimethoxyphenyl)-1,2-dihydro-1,2,4-triazin-6(5H)-one]	20.7 ± 1.58 µM
212 to 214 °C	COc1cc(C=C(NC(=O)c2cc(OC)c(OC)c(OC)c2)C(=O)NNc2nc(-c3ccc(Br)cc3)cs2)cc(OC)c1OC [Compound 11c, N-(3-(2-(4-(4-bromophenyl)thiazol-2-yl)hydrazinyl)-3-oxo-1-(3,4,5-trimethoxyphenyl)prop-1-en-2-yl)-3,4,5-trimethoxybenzamide]	25.7 ± 1.9 µM
212 to 214 °C	COc1cccc(-c2csc(NNC(=O)C(=Cc3cc(OC)c(OC)c(OC)c3)NC(=O)c3cc(OC)c(OC)c(OC)c3)n2)c1 [Compound 11e, 3,4,5-Trimethoxy-N-(3-(2-(4-(3-methoxyphenyl)thiazol-2-yl)hydrazinyl)-3-oxo-1–(3,4,5-trimethoxyphenyl)prop-1-en-2-yl)benzamide]	> 100 µM
241 to 243 °C	COc1cc(C=C(NC(=O)c2cc(OC)c(OC)c(OC)c2)C(=O)NNC(=O)c2cccc(O)c2)cc(OC)c1OC [Compound 2a, N-(3-(2-(3-hydroxybenzoyl)hydrazinyl)-3-oxo-1-(3,4,5-trimethoxyphenyl)prop-1-en-2-yl)-3,4,5-trimethoxybenzamide]	21.7 ± 1.17 µM
212 to 214 °C	COc1cc(C=C2N=C(c3cc(OC)c(OC)c(OC)c3)NC2=O)cc(OC)c1OC [Compound 4, 4-(3,4,5-trimethoxybenzylidene)-2-(3,4,5-trimethoxyphenyl)-1H-imidazol-5(4H)-one]	36.8 ± 2.81 µM
199 to 201 °C	COc1cc(C=C2N=C(c3cc(OC)c(OC)c(OC)c3)N(C(=O)c3cccc(OC(C)=O)c3)NC2=O)cc(OC)c1OC (hydrate or solvate) [Compound 7, 3-(6-oxo-5–(3,4,5-trimethoxybenzylidene)-3-(3,4,5-trimethoxyphenyl)-1,2,5,6-tetrahydro-1,2,4-triazine-2-carbonyl)phenyl acetate]	
212 to 214 °C	COc1cc(C=C2N=C(c3cc(OC)c(OC)c(OC)c3)N(c3nc(-c4ccccc4)cs3)NC2=O)cc(OC)c1OC [Compound 13a, 2-(4-Phenylthiazol-2-yl)-5-(3,4,5-trimethoxybenzylidene)-3–(3,4,5-trimethoxyphenyl)-1,2-dihydro-1,2,4-triazin-6(5H)-one]	19.6 ± 1.42 µM
	COc1cc(C=C2N=C(c3cc(OC)c(OC)c(OC)c3)N(C(N)=S)NC2=O)cc(OC)c1OC [Compound 9, 6-oxo-5-(3,4,5-trimethoxybenzylidene)-3-(3,4,5-trimethoxyphenyl)-5,6-dihydro-1,2,4-triazine-2(1H)-carbothioamide]	4.14 ± 0.22 µM
212 to 214 °C	COc1cc(C=C(NC(=O)c2cc(OC)c(OC)c(OC)c2)C(=O)NNc2nc(-c3cccc([N+](=O)[O-])c3)cs2)cc(OC)c1OC [Compound 11d, 3,4,5-Trimethoxy-N-(3-(2-(4-(3-nitrophenyl)thiazol-2-yl)hydrazinyl)-3-oxo-1–(3,4,5-trimethoxyphenyl)prop-1-en-2-yl)benzamide]	12.2 ± 0.65 µM
212 to 214 °C	COc1cccc(-c2csc(N3NC(=O)C(=Cc4cc(OC)c(OC)c(OC)c4)N=C3c3cc(OC)c(OC)c(OC)c3)n2)c1 [Compound 13e, 2-(4-(3-Methoxyphenyl)thiazol-2-yl)-5-(3,4,5-trimethoxybenzylidene)-3-(3,4,5-trimethoxyphenyl)-1,2-dihydro-1,2,4-triazin-6(5H)-one]	33.5 ± 2.47 µM
212 to 214 °C	COc1cc(C=C(NC(=O)c2cc(OC)c(OC)c(OC)c2)C(=O)NNc2nc(-c3ccc(Cl)cc3)cs2)cc(OC)c1OC [Compound 11b, N-(3-(2-(4-(4-chlorophenyl)thiazol-2-yl)hydrazinyl)-3-oxo-1-(3,4,5-trimethoxyphenyl)prop-1-en-2-yl)-3,4,5-trimethoxybenzamide]	8.59 ± 2.38 µM
227 to 229 °C	COc1cc(C=C(NC(=O)c2cc(OC)c(OC)c(OC)c2)C(=O)NNC(=O)c2ccncc2)cc(OC)c1OC [Compound 2c, N-(3-(2-isonicotinoylhydrazinyl)-3-oxo-1-(3,4,5-trimethoxyphenyl)prop-1-en-2-yl)-3,4,5-trimethoxybenzamide]	13.2 ± 0.71 µM
	COc1cc(C=C2N=C(c3cc(OC)c(OC)c(OC)c3)N(C(=O)c3cccc(OC(C)=O)c3)NC2=O)cc(OC)c1OC [Compound 7, 3-(6-oxo-5–(3,4,5-trimethoxybenzylidene)-3-(3,4,5-trimethoxyphenyl)-1,2,5,6-tetrahydro-1,2,4-triazine-2-carbonyl)phenyl acetate]	13.7 ± 1.04 µM
